pEC50, pIC50, pKi: −log10 of the molar value. “And” between values parts separate entries of the source, which are not always exact repeats. Equal values may be shown once. “Also recorded” adds a separate entry of the source. Read-outs that look alike come from different tables or passages of the source.
How the values were obtained:
[1] = target: T1, rhodesain (Trypanosoma brucei rhodesiense, UniProt Q95PM0); assay: Hydrolysis assay LC/MS (ester hydrolysis by rhodesain); format: biochemical; settings: 24 h incubation with rhodesain, 25 °C
T1 construct: made in house; host or cells: Pichia pastoris
T1 sequence (Q95PM0 entry or part of it): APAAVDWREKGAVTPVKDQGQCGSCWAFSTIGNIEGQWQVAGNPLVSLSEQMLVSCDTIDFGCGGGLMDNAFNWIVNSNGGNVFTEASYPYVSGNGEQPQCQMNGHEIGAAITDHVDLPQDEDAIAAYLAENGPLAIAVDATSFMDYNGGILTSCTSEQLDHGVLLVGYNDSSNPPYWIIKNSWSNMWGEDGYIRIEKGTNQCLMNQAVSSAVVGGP
Method: As reported previously for benzyl esters of the tested dipeptide sequence, we raised the hypothesis also in the current case, that the observed ester cleavage of the rhodesain–inhibitor adduct (Figure 5) might occur by rhodesain-catalyzed enzymatic hydrolysis. To verify this hypothesis, we incubated compounds 1, 2 (benzyl esters), compound 6 (methyl ester) and compound 8 (tert-butyl ester) for 24 h with rhodesain. The reaction mixtures were subsequently analyzed by LC–MS.
In fact, we found ester hydrolysis for the benzyl and methyl esters, but not for the tert-butyl ester. […] The unconverted ester 1 was eluted at tR = 3.19 min. Upon incubation with rhodesain, a peak at tR = 1.03 min was observed matching the retention time of the reference acid 3. […]
triplicates at different time points (0, 30, 60, 120 min) and reactions were initiated by the addition of […]
Hydrolysis assay – LC/MS:
Hydrolysis assays were performed as described previously.[12] To a solution of rhodesain […]
2 mM DTT) 1 μL of either cpd. 1, 2, 6 or 8 in DMSO (20 mM) was added and the mixtures was incubated for 24 h at 25 °C. As negative reaction control, 99 μL assay buffer was treated with pure cpd. 1, 2, 6 or 8 in DMSO (20 mM) without rhodesain. […]
(§1) (20 mM) was added and the absorbance was monitored for 2 h at 25 °C with a Tecan Spark 10M (λabs: […]

[2] = target: T2, cathepsin L (Homo sapiens, UniProt P07711); assay: Fluorometric cathepsin L inhibition assay (Cbz-Phe-Arg-AMC); format: biochemical; set-up: purchased Calbiochem, Merck Millipore; settings: for Cath. L k3 / Cath. L k4: second inhibition step; for Cath. L k3: forward rate; for Cath. L k4: off-rate; for Cath. L t1/2: half-life of final complex, 0.693/k4; for Cath. L ΔEreac: reaction energy of second inhibition step from k3/k4; for inhibition at 20 µM: at 20 µM inhibitor, read-out: Cath. L % inh.
T2 sequence (P07711 114-333): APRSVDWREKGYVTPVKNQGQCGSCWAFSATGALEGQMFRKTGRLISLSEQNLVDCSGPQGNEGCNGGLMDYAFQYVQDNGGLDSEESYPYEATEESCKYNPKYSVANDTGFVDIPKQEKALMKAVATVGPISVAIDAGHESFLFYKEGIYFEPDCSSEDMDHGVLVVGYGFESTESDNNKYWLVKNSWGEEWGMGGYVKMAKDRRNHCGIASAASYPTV

[3] = target: T3, NS3/NS2B protease of the Dengue virus (DENV PR) (Dengue virus type 2, UniProt P29990); assay: Fluorometric DENV NS2B/NS3 protease assay (Boc-Gly-Arg-Arg-AMC); format: biochemical; settings: for inhibition at 20 µM: at 20 µM inhibitor, read-out: DENV PR % inh.
T3 construct: the NS3/NS2B protease of the Dengue virus (DENV PR)
T3 sequence (P29990 1346-1475): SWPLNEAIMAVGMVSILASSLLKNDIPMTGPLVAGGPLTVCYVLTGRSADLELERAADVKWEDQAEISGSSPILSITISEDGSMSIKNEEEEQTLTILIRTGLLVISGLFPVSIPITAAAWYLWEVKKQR
T3 sequence (P29990 1476-1653): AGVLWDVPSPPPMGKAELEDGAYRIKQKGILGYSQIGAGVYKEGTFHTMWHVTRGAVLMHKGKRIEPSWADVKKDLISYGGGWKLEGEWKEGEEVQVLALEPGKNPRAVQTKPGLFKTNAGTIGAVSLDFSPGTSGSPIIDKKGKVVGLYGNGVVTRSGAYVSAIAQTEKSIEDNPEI

[4] = target: T4, cathepsin B (Homo sapiens, UniProt P07858); assay: Fluorometric cathepsin B inhibition assay (Cbz-Phe-Arg-AMC); format: biochemical; settings: for inhibition at 20 µM: at 20 µM inhibitor, read-out: Cath. B % inh.
T4 construct: purchased Calbiochem, Merck Millipore

[5] = target: T1, rhodesain; assay: Dilution assay (reversibility), rhodesain; format: biochemical; settings: 5×IC50, 50-fold dilution; data not shown
[6] = target: T2, cathepsin L; assay: Dilution assay (reversibility), cathepsin L; settings: 5×IC50, 15 min incubation, 50-fold dilution
Method: Then, the mixture was diluted by 50-fold to yield a final inhibitor concentration of 10% of the IC50 concentration.
Fluorometric assays for cathepsin B and cathepsin L (Calbiochem, Merck
Millipore) were performed as described previously.[7,8] Cbz-Phe-Arg-AMC was used as substrate
(final conc.: 100 μM for cathepsin B, 6.5 μM for cathepsin L) in assay buffer (50 mM Tris, pH 6.5,
Recombinantly expressed rhodesain (0.9 mg/mL) or cathepsin L (Calbiochem, Merck Millipore) were
diluted 1:100 in enzyme buffer (rhodesain: 50 mM sodium acetate, pH 5.5, 5 mM EDTA, 200 mM
NaCl and 2 mM DTT; cathepsin L: 50 mM Tris, pH 6.5, 5 mM EDTA, 200 mM NaCl and 2 mM DTT)
and preincubated for 1 h at room temperature. 54 μL of the respective enzyme solution was treated
enzyme-inhibitor reactions were incubated for 15 min at room temperature to ensure complete
inhibition. 1.2 μL of each reaction mixture was diluted with 57.3 μL of the respective assay buffer
(rhodesain: 50 mM sodium acetate, pH 5.5, 5 mM EDTA, 200 mM NaCl, 0.005% Brij; cathepsin L:
Phe-Arg-AMC in DMSO (final conc.: 10 μM for rhodesain, 6.5 μM for cathepsin L) and monitored
with a Tecan Infinite M200 Pro plate reader (λ ex: 380 nm/λ em: 460 nm).

[7] = target: T1, rhodesain; assay: biochemical; format: biochemical; settings: for fold improvement of rhodesain inhibition, acid compared to benzyl ester: 3 compared to 1, 4 compared to 2; for Rhod. t1/2: half-life of final complex, 0.693/k4; for Rhod. ΔEreac: reaction energy of second inhibition step from k3/k4; for Rhod. k3 / Rhod. k4: second inhibition step; for Rhod. k3: forward rate; for Rhod. k4: off-rate; for inhibition at 20 µM: at 20 µM inhibitor, read-out: Rhod. % inh.
[8] = tested on: T. b. brucei 449 cell line; assay: T. b. brucei cell survival assay (ATPlite); format: cell-based; settings: Trypanosoma brucei, 48 h; read-out: EC50 antitrypanosomal activity
Method: Benzyl ester 2 was tested for its antitrypanosomal activity as described previously.
5. T. b. brucei cell survival assay
Toxicity of 2 against trypanosomes ( T. b. brucei 449 cell line) were determined via an ATPlite assay as described previously[13–15] using the cellular ATP levels as a proxy for cell viability. 2 (5 mM stock solution in DMSO) was first diluted 1:3 in medium, followed by a 1:10 dilution step in a microplate and ten subsequent 1:2 dilution steps. 90 μL HMI-9 medium containing 2500 cells/mL were distributed in 96-well microplates (PerkinElmer). 10 μL of the 1:2 dilution step preparations of the tested compounds were added to the 90 μL cell suspension leading to final concentrations from 16.67 μM to 32.55 nM in the microplates. As a negative control, addition of 0.3% of DMSO corresponding to the highest DMSO concentration added by compound application was used. 10% DMSO was used as a positive control, since at this DMSO concentration, all cells die. […] 50 μL of ATPlite 1 step solution (PerkinElmer) was added to each well of the microplate and luminescence measured at room temperature with an Infinite® M200 PRO plate reader (Tecan Trading AG). The measured values were plotted against the compound concentrations top yield the dose-response curve. The EC 50 values were calculated using GraFit version 5.013 (Erithacus Software Ltd.).

[9] = target: T1, rhodesain; assay: Hydrolysis assay UV-Vis (ester hydrolysis by rhodesain); format: biochemical; settings: for half-life at 250 µM: Trypanosoma brucei rhodesiense, rhodesain enzyme solution, pH 5.5, absorbance at 400 nm vs time, read-out: t1/2 of ester hydrolysis by rhodesain; for turnover curve of absorbance at 400 nm vs. time with rhodesain: monitored for 2 h at 25 °C
Method: Since the esters and the free carboxylic acid have different UV-Vis characteristics, we recorded time-dependent absorbance spectra at 400 nm (Figure 9).
Figure 9 Kinetic analysis of the ester hydrolysis by rhodesain. […]
Hydrolysis assay – UV-Vis:
To a solution of rhodesain (10 μg/mL) in 197.5 μL reaction buffer (50 mM sodium acetate, pH 5.5,
as §1

[10] = target: T1, rhodesain; assay: Dialysis assay (reversibility), rhodesain; format: biochemical; settings: 20×IC50, 30 min preincubation, dialysis up to 120 min
[11] = final complex, Dixon fit of vS vs [I], read-out: Cath. L Ki^* Method 2
[12] = final high-affinity complex, Ki/(1+k3/k4), read-out: Cath. L Ki^* Method 1
[13] = initial complex, Dixon fit of vi vs [I], read-out: Cath. L Ki Method 2
[14] = initial non-covalent complex, from kobs vs [I], read-out: Cath. L Ki Method 1
[15] = reversible, time-dependent inhibition, final high-affinity complex, mean of method 1 and method 2, read-out: Cath. L Ki^*
[16] = approximate value, read-out: Ki of initial non-covalent complex, CathL
[17] = approximate value, read-out: Ki of initial non-covalent complex, Rhod
[18] = final complex, Dixon fit of vS vs [I], read-out: Rhod. Ki^* Method 2
[19] = final high-affinity complex, Ki/(1+k3/k4), read-out: Rhod. Ki^* Method 1
[20] = initial complex, Dixon fit of vi vs [I], read-out: Rhod. Ki Method 2
[21] = initial non-covalent complex, from kobs vs [I], read-out: Rhod. Ki Method 1
[22] = reversible, time-dependent inhibition, final high-affinity complex, mean of method 1 and method 2, read-out: Rhod. Ki^*

Structure (SMILES): CC(C)CC(NC(=O)C(Cc1ccccc1)NC1=C(Cl)C(=O)c2ccccc2C1=O)C(=O)OCc1ccccc1 [Compound 1, Benzyl-N-(3-chloro-1,4-dioxo-1,4-dihydronaphthalen-2-yl)-L-phenylalanyl-L-leucinate]
- ester hydrolysis by rhodesain (LC–MS) [1]: rhodesain-catalyzed ester hydrolysis
- pKi ([2]; from plots of IC50 vs substrate concentration (Cheng–Prusoff), read-out: Cath. L Ki): 5.94
- inhibition at 20 µM [3]: 41%
- inhibition at 20 µM [4]: 53%
- reactivation of enzyme activity after dilution, rhodesain [5]: 40–50%
- reactivation of enzyme activity after dilution, cathepsin L [6]: full reactivation; also recorded: nearly fully recovered
- pKi ([7]; read-out: Rhod. Ki): 5.54

Structure (SMILES): CC(C)C[C@H](NC(=O)[C@H](Cc1ccccc1)NC1=C(C#N)C(=O)c2ccccc2C1=O)C(=O)OCc1ccccc1 [Compound 2]
- pEC50 [8]: 6.92
- k3, cathepsin L ([2]; Method 1): 0.0148 s⁻¹
- k4, cathepsin L ([2]; Method 1): 0.0012 s⁻¹
- half-life t1/2 of final complex, cathepsin L ([2]; calculated by 0.693/k4): around 10 min
- pKi [2, 11]: 7.27
- pKi [2, 12]: 7.92
- pKi [2, 13]: 6.52
- pKi [2, 14]: 6.80
- pKi [2, 15]: 7.48
- Cath. L k3 [2]: 0.0148 s⁻¹
- Cath. L k4 [2]: 0.0012 s⁻¹
- pIC50 ([3]; [S] = 100 µM (Boc-Gly-Arg-Arg-AMC)): 4.39
- pKi ([4]; read-out: Cath. B Ki): 5.72
- reactivation of enzyme activity after dilution, cathepsin L [6]: full reactivation; also recorded: nearly fully recovered
- pKi ([7]; read-out: Rhod. Ki): 6.74
- half-life at 250 µM [9]: 3.41 min
- turnover curve of absorbance at 400 nm vs. time with rhodesain [9]: hyperbolic turnover curves

Structure (SMILES): CC(C)C[C@H](NC(=O)[C@H](Cc1ccccc1)NC1=C(Cl)C(=O)c2ccccc2C1=O)C(=O)O [Compound 3]
- recovery of rhodesain activity by dialysis [10]: the enzymatic activity was restored
- fold improvement of cathepsin L inhibition, acid compared to benzyl ester ([2]; 3 compared to ester 1): 20 fold
- pKi [2, 16]: ~6.40
- pKi [2, 11]: 7.21
- pKi [2, 12]: 7.28
- Cath. L t1/2 [2]: 16.5 min
- pKi [2, 13]: 6.46
- pKi [2, 14]: 6.35
- Cath. L ΔEreac [2]: -1.2 kcal/mol
- pKi [2, 15]: 7.24
- Cath. L k3 [2]: 0.0052 s⁻¹
- Cath. L k4 [2]: 0.0007 s⁻¹
- inhibition at 20 µM [3]: 43%
- inhibition at 20 µM [4]: 25%
- reactivation of enzyme activity after dilution, rhodesain [5]: full reactivation
- reactivation of enzyme activity after dilution, cathepsin L [6]: full reactivation
- fold improvement of rhodesain inhibition, acid compared to benzyl ester [7]: ca. 120 fold
- pKi [7, 17]: ~7.22
- pKi [7, 18]: 7.44
- pKi [7, 19]: 7.96
- Rhod. t1/2 [7]: 19.25 min
- pKi [7, 20]: 7.20
- pKi [7, 21]: 7.24
- Rhod. ΔEreac [7]: -0.85 kcal/mol
- pKi [7, 22]: 7.62
- Rhod. k3 [7]: 0.0025 s⁻¹
- Rhod. k4 [7]: 0.0006 s⁻¹

Structure (SMILES): CC(C)C[C@H](NC(=O)[C@H](Cc1ccccc1)NC1=C(C#N)C(=O)c2ccccc2C1=O)C(=O)O [Compound 4]
- recovery of rhodesain activity by dialysis [10]: the enzymatic activity was restored; also recorded: only slow reactivation
- pKi [2, 16]: ~7.00
- pKi [2, 11]: 7.82
- pKi [2, 12]: 7.72
- Cath. L t1/2 [2]: 12.8 min
- pKi [2, 13]: 7.04
- pKi [2, 14]: 6.89
- Cath. L ΔEreac [2]: -1.1 kcal/mol
- pKi [2, 15]: 7.77
- Cath. L k3 [2]: 0.0051 s⁻¹
- Cath. L k4 [2]: 0.0009 s⁻¹
- inhibition at 20 µM [3]: 38%
- inhibition at 20 µM [4]: 45%
- reactivation of enzyme activity after dilution, rhodesain [5]: full reactivation
- reactivation of enzyme activity after dilution, cathepsin L [6]: full reactivation
- fold improvement of rhodesain inhibition, acid compared to benzyl ester [7]: ca. 1200 fold
- pKi [7, 17]: ~9.40
- pKi [7, 18]: 9.70
- pKi [7, 19]: 10.00
- Rhod. t1/2 [7]: 19.25 min
- pKi [7, 20]: 9.49
- pKi [7, 21]: 9.33
- Rhod. ΔEreac [7]: -0.89 kcal/mol
- pKi [7, 22]: ~9.82 and 9.82
- Rhod. k3 [7]: 0.0027 s⁻¹
- Rhod. k4 [7]: 0.0006 s⁻¹

Structure (SMILES): COC(=O)[C@H](CC(C)C)NC(=O)[C@H](Cc1ccccc1)NC1=C(Cl)C(=O)c2ccccc2C1=O [Compound 5]
- inhibition at 20 µM [2]: 45%
- inhibition at 20 µM [7]: 48%

Structure (SMILES): COC(=O)[C@H](CC(C)C)NC(=O)[C@H](Cc1ccccc1)NC1=C(C#N)C(=O)c2ccccc2C1=O [Compound 6]
- inhibition at 20 µM [2]: 40%
- pKi ([7]; read-out: Rhod. Ki): 5.91
- half-life at 250 µM [9]: 10.2 min
- turnover curve of absorbance at 400 nm vs. time with rhodesain [9]: hyperbolic turnover curves

Structure (SMILES): CC(C)C[C@H](NC(=O)[C@H](Cc1ccccc1)NC1=C(Cl)C(=O)c2ccccc2C1=O)C(=O)OC(C)(C)C [Compound 7]
- inhibition at 20 µM [2]: 38%
- inhibition at 20 µM [7]: 51%

Structure (SMILES): CC(C)C[C@H](NC(=O)[C@H](Cc1ccccc1)NC1=C(C#N)C(=O)c2ccccc2C1=O)C(=O)OC(C)(C)C [Compound 8]
- inhibition at 20 µM [2]: 21%
- inhibition at 20 µM [7]: 38%

Structure (SMILES): CN1CCN(C(=O)N[C@@H](Cc2ccccc2)C(=O)N[C@H](/C=C/S(=O)(=O)c2ccccc2)CCc2ccccc2)CC1 [K11777, reference compound]
- recovery of rhodesain activity by dialysis [10]: the enzyme activity could not be recovered
- reactivation of enzyme activity after dilution, cathepsin L [6]: no recovery was observed
